# Assay results taken from patent US10053675B2, “Hydroxyphenylpyruvate dioxygenase polypeptides and methods of use” (SYNGENTA PARTICIPATIONS AG, priority 2009, dated 2018).
# Values joined by “and” are separate entries in the source; they are usually repeats but may differ in a detail not shown here. Identical values can stand only once. Like-named read-outs stand apart in the source and are kept apart here.
# B1: SEQ ID NO: 1: the HPPD amino acid sequence of Avena sativa (protein, listed as Avena sativa)
# chain: MPPTPATATGAAAAAVTPEHAARSFPRVVRVNPRSDRFPVLSFHHVELWCADAASAAGRFSFALGAPLAARSDLSTGNSAHASLLLRSGALAFLFTAPYAPPPQEAATAATASIPSFSADAARTFAAAHGLAVRSVGVRVADAAEAFRVSVAGGARPAFAPADLGHGFGLAEVELYGDVVLRFVSYPDETDLPFLPGFERVSSPGAVDYGLTRFDHVVGNVPEMAPVIDYMKGFLGFHEFAEFTAEDVGTTESGLNSVVLANNSEAVLLPLNEPVHGTKRRSQIQTYLEYHGGPGVQHIALASNDVLRTLREMRARTPMGGFEFMAPPQAKYYEGVRRIAGDVLSEEQIKECQELGVLVDRDDQGVLLQIFTKPVGDRPTFFLEMIQRIGCMEKDEVGQEYQKGGCGGFGKGNFSELFKSIEDYEKSLEVKQSVVAQKS
# Assays:
# [1] = biological target: T1, Avena-derived HPPD SEQ ID NO: 1 (Avena sativa, UniProt A0ACD5V6K6, DEL109-109); assay: biochemical; format: binding; conditions: for koff / Off rate k1, individual experiments: direct or indirect radiochemical method
# Description: On rates (governed by an association rate constant, kon) for the formation of the enzyme:inhibitor complexes, EI and off rates (governed by a dissociation rate constant, koff) were determined by methods known in the art and essentially as described in Hawkes et al. (2001) Proc. Bright. Crop. Prot. Conf. Weeds, 2:563-568 and in PCT Publication No. WO 02/46387).
# Off rates (k1 in the scheme below) were derived from exchange rate studies where either the test inhibitor, I, or its exchange partner, J were radiolabelled and the data fit according to the scheme below. As noted in Hawkes et al. (2001) Proc. Bright. Crop. Prot. Conf.
# After 30 minutes the exchange reaction was initiated with addition of 100 μl 1 mM ‘cold’ structure A with thorough mixing, and, immediately, 150 μl were withdrawn and loaded onto a NAP5 column, the protein exchanged into 50 mM BisTrisPropane buffer at pH 7.0 containing 0.1M KCl by rapid (<2 min) chromatography down a NAP5 G25 Sephadex® column (GE Healthcare Ltd, Buckinghamshire UK) and the amount of ^14C bound to protein measured by Optiphase scintillant using a Tri-Carb® 2900TR scintillation counter (Perkin Elmer, Wellesley, Mass.). Further aliquots were removed and measured in the same way at various times over minutes or hours as required in order to determine the exchange kinetics.
# In this case, off rates were determined by preincubating ˜200 pmoles HPPD in reaction buffer (50 mM BTP pH 7, 25 mM Na ascorbate, 4 μg/ml bovine catalase, and 10% glycerol) containing ˜1.0 nmoles ^14C inhibitor at 25° C. in a total assay volume of 1.3 ml. After 30 minutes the reaction vessel was transferred to ice. After a further 10 minutes at ice temperature the exchange reaction was initiated by addition of 100 μl 1 mM Structure A, with thorough mixing, and 150 μl was withdrawn, loaded and quickly exchanged down a NAP5 column in a cold room at ˜5-8° C. in order to quantify the amount of radiolabel remaining bound to the protein at various time from the start of exchange at ice temperature.
# Off rates (k1) of HPPD inhibitors that are not readily available radiolabelled or that present other measurement problems (for example high levels of background non-specific protein-binding which can be measured as radiolabel binding that persists in the presence of high concentrations of ‘cold’ inhibitor) may be measured indirectly. […] Exemplary methods are also described in PCT Publication No. WO 02/46387.
# [2] = test system: tobacco plants expressing wheat HPPD (A7WK82); assay: Glasshouse spray test on transgenic tobacco expressing wheat HPPD; format: in vivo; conditions: 14 DAT
# Description: (§1) The CTP/HPPD encoding nucleotide sequence is edited by PCR (or initially synthesized) to include a 5′ XhoI site, a TMV omega enhancer (SEQ ID NO: 86) and a 3′ KpnI site (and to remove any such internal sites).
# For example, a master plate of Agrobacterium tumefaciens containing the HPPD expressing binary vector is used to inoculate 10 ml LB (L broth) containing 100 mg/l rifampicin plus 50 mg/l kanamycin using a single bacterial colony. This is incubated overnight at 28° C. shaking at 200 rpm. This entire overnight culture is used to inoculate a 50 ml volume of LB containing the same antibiotics. Again this is cultured overnight at 28° C. shaking at 200 rpm. The Agrobacterium cells are pelleted by centrifuging at 3000 rpm for 15 minutes and then resuspended in MS (Murashige and Skoog) medium containing 30 g/l sucrose, pH 5.9 to an OD (600 nM)=0.6. This suspension is dispensed in 25 ml aliquots into petri dishes.
# Clonally micro-propagated tobacco shoot cultures are used to excise young (not yet fully expanded) leaves. The mid rib and outer leaf margins are removed and discarded, and the remaining lamina cut into 1 cm squares. These are transferred to the Agrobacterium suspension for 20 minutes. […]
# (§2) As shoots start to regenerate from the callusing leaf explants, these are removed to Shoot elongation medium (MS medium, 30 g/l sucrose, 8 g/l plantagar, 100 mg/l kanamycin, 200 mg/l timentin, 250 mg/l carbenicillin, pH 5.9). Stable transgenic plants readily root within 2 weeks. […]
# (§3) Putative transgenic plants that are rooting and showing vigorous shoot growth on the medium incorporating kanamycin are analysed by PCR using primers that amplified a 500 bp fragment within the HPPD transgene. […]
# (§4) A sub-set of about 30 plants were then selected on the basis of similar size from each population for spray testing. […] Plants were assessed for damage and scored at 14 days after treatment (DAT). […]
# [3] = test system: tobacco plants expressing Pseudomonas fluorescens HPPD (SEQ ID NO: 14); assay: Glasshouse spray test on transgenic tobacco expressing Pseudomonas HPPD; format: in vivo; conditions: 600 g/ha isoxaflutole, 14 DAT
# Description: as §1
# (§5) For example, a master plate of Agrobacterium tumefaciens containing the HPPD expressing binary vector is used to inoculate 10 ml LB (L broth) containing 100 mg/l rifampicin plus 50 mg/l kanamycin using a single bacterial colony. This is incubated overnight at 28° C. shaking at 200 rpm. This entire overnight culture is used to inoculate a 50 ml volume of LB containing the same antibiotics. Again this is cultured overnight at 28° C. shaking at 200 rpm. […]
# as §2, §3, §4
# [4] = test system: tobacco plants expressing Arabidopsis HPPD (SEQ ID NO: 13); assay: Glasshouse spray test on transgenic tobacco expressing Arabidopsis HPPD; format: in vivo; conditions: 600 g/ha isoxaflutole, 14 DAT
# Description: as §1, §5, §2, §3, §4
# [5] = biological target: T1, Avena-derived HPPD SEQ ID NO: 1; assay: On rate (kon, k2) of enzyme:inhibitor complex formation; format: binding; conditions: read-out: On rate, activity based method
# [6] = biological target: T1, Avena-derived HPPD SEQ ID NO: 1; assay: HPPD assay for KmHPP and kcat (HPLC/UV quantitation of homogentisate); format: biochemical; conditions: 25° C.
# Description: The assay solution was transferred to Chromacol 03-CVG HPLC vials, sealed and the amount of homogentisate formed in a 40 μl aliquot determined by injection onto a reverse phase Aqua C18 5μ 75×4.6 mm HPLC column running 5.5% acetonitrile 0.1% TFA (Buffer A) at 1.5 ml/min. The column was eluted at 1.5 ml/minute using a 2 minute wash in buffer A, followed by a 2 minute wash in a 30/70 mixture of buffer A and 100% acetonitrile, and a further 3.5 minute wash in buffer A. The elution of homogentisate was monitored by UV at 292 nm and the amount formed in each reaction quantified by comparison with a standard calibration curve.
# Km and Vmax values were determined (for example FIG. 1) using a non linear least squares fit using Grafit 4™ software (Erithacus Software, Middlesex, UK). Kcat values were determined by dividing the maximum rate, Vmax expressed in nmol/s by the number of nmoles of HPPD enzyme (based on the concentration determined by active-site titration).
# For the alternative assumption of one active site per monomer then calculated kcat values should simply be correspondingly and systematically halved.
# [7] = Kd of inhibitor over Km HPP of SEQ ID NO: 1
# [8] = 25° C., read-out: Off rate k1 / koff (average or final estimate)
# [9] = 25° C., individual measurements, read-out: Off rate k1, individual experiments
# [10] = 25° C., individual measurements
molecule,measurement,setting,value
CCOc1c(S(C)(=O)=O)ccc(C(=O)C2C(=O)CC(C)CC2=O)c1Cl (stereo not shown) [Compound A],Kd/Km ratio,[1]; [7],0.000036
COCCOCc1nc(C(F)(F)F)ccc1C(=O)C1C(=O)C2CCC(C2)C1=O (stereo not shown) [Compound C],Kd,[1],7.1 nM
same,koff,[1]; [8],5.3e-05 s⁻¹
same,koff,[1]; [9],5.67e-05 s⁻¹
same,Kd/Km ratio,[1]; [7],0.0013
"CS(=O)(=O)c1ccc(C(=O)C2C(=O)CCCC2=O)c([N+](=O)[O-])c1 [Compound B, mesotrione]",Events exhibiting < or equal to 10% damage,[2]; 600 g/ha mesotrione,Five out of 33
Cc1c(C(=O)C2C=NN(C)C2=O)ccc(S(C)(=O)=O)c1C1=NOCC1 (stereo not shown) [Compound F],koff,[1]; [8],6.72e-05 s⁻¹
same,"Off rate k1, individual experiments",[1]; [10],6e-05 s⁻¹ and 7e-05 s⁻¹ and 6.83e-05 s⁻¹
same,koff,[1]; [9],7.08e-05 s⁻¹
CS(=O)(=O)c1ccc(C(=O)C2C(=O)CCCC2=O)c(Cl)c1COCC(F)(F)F [Compound E],Kd,[1],0.228 nM
same,Kd/Km ratio,[1],0.000042
same,"Off rate k1, individual experiments",[1]; [10],2.02E-05 s^−1 and 3.00E-05 s^−1 and 3.67E-05 s^−1 and 3.17E-05 s^−1 (2×) and 2.67E-05 s^−1 (2×) and 3.33E- 05 s^−1
same,koff,"[1]; read-out: Off rate k1, individual experiments, 25° C., individual measurements",3.08e-05 s⁻¹
CS(=O)(=O)c1cc(C(F)(F)F)ccc1C(=O)c1cnoc1C1CC1 [isoxaflutole],Bleaching,[2]; 600 g/ha isoxaflutole,Full and Green and Partly
same,Events showing less than 20% damage,[2]; 600 g/ha isoxaflutole,3/33
same,Bleaching,[3],Full and Partly
same,Plants showing 50% damage or less,[3],4/32
same,Bleaching,[4],Full
CS(=O)(=O)c1cc(C(F)(F)F)ccc1C(=O)C(C#N)C(=O)C1CC1 (stereo not shown) [Compound D],kon,[5],57000 M⁻¹ s⁻¹
same,Kd,[1],1.36 nM
same,koff,[1]; [8],4.39e-05 s⁻¹
same,koff,[1]; [9],4.5e-05 s⁻¹
same,Kd/Km ratio,[1]; [7],0.00025
B1,Km,[6]; pH 7.0,5.38 µM
same,kcat average,[6]; one active-site per dimer assumed,6.46 s⁻¹
